18 compounds from patent US11685719B2, “Pyridinone MK2 inhibitors and uses thereof” (Xinthera, Inc., priority 2021, dated 2023) can be followed below.

The target in one assay is p38a/MK2 (Homo sapiens (Human), UniProt P49137+Q16539). Briefly: biochemical. To be noted: 10-point 1:3 dilution, top dose 1 μM; 10 μM ATP, 2 h incubation; read-out: p38a/MK2 (1 μM) Enzyme pIC50 (converted). As for the experimental part: (§1) Expression vectors of the recombinant MK2 and PRAK kinases were constructed by cloning of the codon optimized gene sequences of MK2 (Uniprot ID P49137, amino acid fragment F46-H400), or PRAK (Uniprot ID Q81W41, amino acid fragment M1-Q471) into pGEX-4T1 (GE) for over expression of these kinases with N-terminal GST-tag. Protein expression was carried out in E. coli BL21 by growing the hosts in TB medium, induction of protein expression with 0.5 mM IPTG at approximate 0.8 OD600, and incubation of the cultures at 18° C. for 14-20 hours afterwards. The harvested cells were resuspended in […] of Lysis buffer (50 mM Tris-HCl, pH 8.0, 500 mM NaCl, 1 mM DTT, 5% glycerol, and 1 mM PMSF) per gram of wet cell mass and homogenized at 4° C. in a microfluidizer (ATS, Suzhou, China) at 14,000 psi pressure, 3 passes. The cell lysates were clarified by centrifugation and the supernatants containing the GST-fusion proteins were purified by affinity chromatography using GSH-Sepharose (GE) gravity flow columns pre-equilibrated in Buffer A (50 mM Tris-HCl, pH 8.0, 500 mM NaCl, 1 mM DTT, and 5% glycerol). After thorough washing of the columns with Buffer A, the bound GST-proteins were eluted by Buffer B (50 mM Tris, pH 8.0, 500 mM NaCl, 1 mM DTT, 5% glycerol, 10 mM glutathione), followed by size-exclusion purification on Superdex 200 column equilibrated in Buffer A. The purified proteins were concentrated to approximately 1 mg/ml and stored at −80° C.
p38a/MK2, sequence (Q16539 whole entry, the tested form may be a part): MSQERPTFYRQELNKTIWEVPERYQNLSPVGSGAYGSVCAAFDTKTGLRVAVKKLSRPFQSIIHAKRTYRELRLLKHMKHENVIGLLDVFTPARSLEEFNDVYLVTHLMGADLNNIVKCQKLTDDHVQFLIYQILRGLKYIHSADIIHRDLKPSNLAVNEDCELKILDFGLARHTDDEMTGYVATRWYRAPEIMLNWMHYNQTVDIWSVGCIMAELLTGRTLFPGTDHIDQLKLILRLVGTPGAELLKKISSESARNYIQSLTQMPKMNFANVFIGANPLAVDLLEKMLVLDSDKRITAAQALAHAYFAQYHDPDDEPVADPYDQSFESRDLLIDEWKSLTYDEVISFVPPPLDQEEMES
p38a/MK2, sequence (P49137 46-400): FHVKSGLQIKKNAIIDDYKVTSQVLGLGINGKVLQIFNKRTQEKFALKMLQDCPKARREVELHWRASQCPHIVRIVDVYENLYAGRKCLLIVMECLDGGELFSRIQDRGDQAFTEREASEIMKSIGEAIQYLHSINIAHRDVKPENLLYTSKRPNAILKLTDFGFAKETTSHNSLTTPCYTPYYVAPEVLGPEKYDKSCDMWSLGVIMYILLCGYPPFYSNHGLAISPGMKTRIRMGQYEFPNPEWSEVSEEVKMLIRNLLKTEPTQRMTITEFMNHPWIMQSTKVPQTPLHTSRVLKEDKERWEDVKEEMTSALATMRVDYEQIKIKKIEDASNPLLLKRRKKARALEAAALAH
(§2) This study evaluates the inhibitory potency of invention compound on p38/MK2 pathway vs p38/PRAK pathway. More specially the compound concentration (IC50) was determined that inhibited half of the maximal activation of MK2 or PRAK by p38. MK2 activation study was set up without or with a serial of 10-point 1:3 dilution of invention compound at top dose of 1 or 10 μM, and PRAK activation study was set up without or with a serial of 10-point 1:3 dilution of invention compound at top dose of 300 μM. The MIK2 and PRAK activity were determined by the phosphorylation level of HSP27 peptide conjugated with FITC.

Another assay addresses p38a/PRAK (Homo sapiens (Human), UniProt Q16539). Description: biochemical. Conditions: 10-point 1:3 dilution, top dose 300 μM; 10 μM ATP, 2 h incubation; read-out: p38a/PRAK Enzyme pIC50 (converted). As for the experimental part:
as §1, §2

p38a/PRAK, sequence (Q16539 whole entry): as the sequence (Q16539 whole entry, the tested form may be a part) above

Consider `Cc1cnc(-n2cncc(C(C)(C)O)c2=O)cc1-n1c(C)cc(OCc2ncc(F)cc2F)c(Cl)c1=O` (single isomer, unassigned) [Example 10A, rel-3-chloro-4-[(3,5-difluoropyridin-2-yl)methoxy]-2′-[5-(2-hydroxypropan-2-yl)-6-oxopyrimidin-1-yl]-5′,6-dimethyl-[1,4′-bipyridin]-2-one], for which the IC50 on p38a/MK2 was 100 nM; at p38a/PRAK, 3980 nM.

For `Cc1cnc(-n2cncc(C(C)(C)O)c2=O)cc1-n1c(C)cc(OCc2ncc(F)cc2F)c(Cl)c1=O` (single isomer, unassigned) [Example 10B, rel-3-chloro-4-[(3,5-difluoropyridin-2-yl)methoxy]-2′-[5-(2-hydroxypropan-2-yl)-6-oxopyrimidin-1-yl]-5′,6-dimethyl-[1,4′-bipyridin]-2-one], the IC50 at p38a/MK2 is greater than 1000 nM; on p38a/PRAK, greater than 316000 nM.

Regarding `Cc1cnc(-n2cccc(C(C)(C)CO)c2=O)cc1-n1c(C)cc(OCc2ncc(F)cc2F)c(Cl)c1=O` (single isomer, unassigned) [Example 11A, rel-3-chloro-4-[(3,5-difluoropyridin-2-yl)methoxy]-2′-[3-(1-hydroxy-2-methylpropan-2-yl)-2-oxopyridin-1-yl]-5′,6-dimethyl-[1,4′-bipyridin]-2-one], the results for the IC50 at p38a/MK2 and on p38a/PRAK were 3.98 nM and 5010 nM, respectively.

As for `Cc1cnc(-n2cccc(C(C)(C)CO)c2=O)cc1-n1c(C)cc(OCc2ncc(F)cc2F)c(Cl)c1=O` (single isomer, unassigned) [Example 11B, rel-3-chloro-4-[(3,5-difluoropyridin-2-yl)methoxy]-2′-[3-(1-hydroxy-2-methylpropan-2-yl)-2-oxopyridin-1-yl]-5′,6-dimethyl-[1,4′-bipyridin]-2-one], the IC50 at p38a/MK2 was greater than 1000 nM; on p38a/PRAK, greater than 316000 nM.

Regarding `Cc1cnc(-n2cccc(C3(O)CCC3)c2=O)cc1-n1c(C)cc(OCc2ncc(F)cc2F)c(Cl)c1=O` (single isomer, unassigned) [Example 12A, rel-3-chloro-4-[(3,5-difluoropyridin-2-yl)methoxy]-2′-[3-(1-hydroxycyclobutyl)-2-oxopyridin-1-yl]-5′,6-dimethyl-[1,4′-bipyridin]-2-one], the IC50 was 12.6 nM at p38a/MK2 and 7940 nM on p38a/PRAK.

For the compound `Cc1cnc(-n2cccc(C3(O)CCC3)c2=O)cc1-n1c(C)cc(OCc2ncc(F)cc2F)c(Cl)c1=O` (single isomer, unassigned) [Example 12B, rel-3-chloro-4-[(3,5-difluoropyridin-2-yl)methoxy]-2′-[3-(1-hydroxycyclobutyl)-2-oxopyridin-1-yl]-5′,6-dimethyl-[1,4′-bipyridin]-2-one], the figures for the IC50 at p38a/MK2 and at p38a/PRAK were greater than 1000 nM and greater than 316000 nM, respectively.

Take `Cc1cnc(-n2cc(C(C)(C)O)ccc2=O)cc1-n1c(C)cc(OCc2ncc(F)cc2F)c(Cl)c1=O` (single isomer, unassigned) [Example 13A, rel-3-chloro-4-[(3,5-difluoropyridin-2-yl)methoxy]-2′-[5-(2-hydroxypropan-2-yl)-2-oxopyridin-1-yl]-5′,6-dimethyl-[1,4′-bipyridin]-2-one]: the values for the IC50 at p38a/MK2 and at p38a/PRAK were greater than 1000 nM and greater than 316000 nM, respectively.

Consider `Cc1cnc(-n2cccc([C@](C)(O)C3CC3)c2=O)cc1-n1c(C)cc(OCc2ncc(F)cc2F)c(Cl)c1=O` (single isomer, unassigned) [Example 14A, rel-3-chloro-2′-[3-(1-cyclopropyl-1-hydroxyethyl)-2-oxopyridin-1-yl]-4-[(3,5-difluoropyridin-2-yl)methoxy]-5′,6-dimethyl-[1,4′-bipyridin]-2-one], for which the values for the IC50 at p38a/MK2 and at p38a/PRAK were 1.58 nM and 3160 nM, respectively.

Regarding `Cc1cnc(-n2cccc([C@@](C)(O)C3CC3)c2=O)cc1-n1c(C)cc(OCc2ncc(F)cc2F)c(Cl)c1=O` (single isomer, unassigned) [Example 14B, rel-3-chloro-2′-[3-(1-cyclopropyl-1-hydroxyethyl)-2-oxopyridin-1-yl]-4-[(3,5-difluoropyridin-2-yl)methoxy]-5′,6-dimethyl-[1,4′-bipyridin]-2-one], the IC50 at p38a/MK2 was 1.26 nM; at p38a/PRAK it was 3160 nM.

As for `Cc1cnc(-n2cccc([C@](C)(O)C3CC3)c2=O)cc1-n1c(C)cc(OCc2ncc(F)cc2F)c(Cl)c1=O` (single isomer, unassigned) [Example 14C, rel-3-chloro-2′-[3-(1-cyclopropyl-1-hydroxyethyl)-2-oxopyridin-1-yl]-4-[(3,5-difluoropyridin-2-yl)methoxy]-5′,6-dimethyl-[1,4′-bipyridin]-2-one], the IC50 was greater than 1000 nM at p38a/MK2 and greater than 316000 nM at p38a/PRAK.

Regarding `Cc1cnc(-n2cccc([C@@](C)(O)C3CC3)c2=O)cc1-n1c(C)cc(OCc2ncc(F)cc2F)c(Cl)c1=O` (single isomer, unassigned) [Example 14D, rel-3-chloro-2′-[3-(1-cyclopropyl-1-hydroxyethyl)-2-oxopyridin-1-yl]-4-[(3,5-difluoropyridin-2-yl)methoxy]-5′,6-dimethyl-[1,4′-bipyridin]-2-one], the IC50 on p38a/MK2 is greater than 1000 nM; at p38a/PRAK it was greater than 316000 nM.

Take `Cc1cnc(-n2ccc(C)c(C(C)(C)O)c2=O)cc1-n1c(C)cc(OCc2ncc(F)cc2F)c(Cl)c1=O` (single isomer, unassigned) [Example 15A, rel-3-chloro-4-[(3,5-difluoropyridin-2-yl)methoxy]-2′-[3-(2-hydroxypropan-2-yl)-4-methyl-2-oxopyridin-1-yl]-5′,6-dimethyl-[1,4′-bipyridin]-2-one]: the IC50 was 10 nM on p38a/MK2 and 2510 nM at p38a/PRAK.

For `Cc1cnc(-n2ccc(C)c(C(C)(C)O)c2=O)cc1-n1c(C)cc(OCc2ncc(F)cc2F)c(Cl)c1=O` (single isomer, unassigned) [Example 15B, rel-3-chloro-4-[(3,5-difluoropyridin-2-yl)methoxy]-2′-[3-(2-hydroxypropan-2-yl)-4-methyl-2-oxopyridin-1-yl]-5′,6-dimethyl-[1,4′-bipyridin]-2-one], the IC50 was greater than 1000 nM at p38a/MK2 and greater than 316000 nM on p38a/PRAK.

Consider `Cc1ncc(-n2cccc(C(C)(C)O)c2=O)cc1-n1c(C)cc(OCc2ncc(F)cc2F)c(Cl)c1=O` (single isomer, unassigned) [Example 16A, rel-5′-{3-chloro-4-[(3,5-difluoropyridin-2-yl)methoxy]-6-methyl-2-oxopyridin-1-yl}-3-(2-hydroxypropan-2-yl)-6′-methyl-[1,3′-bipyridin]-2-one], for which the IC50 is 200 nM at p38a/MK2 and 7940 nM on p38a/PRAK.

Turning to `Cc1ncc(-n2cccc(C(C)(C)O)c2=O)cc1-n1c(C)cc(OCc2ncc(F)cc2F)c(Cl)c1=O` (single isomer, unassigned) [Example 16B, rel-5′-{3-chloro-4-[(3,5-difluoropyridin-2-yl)methoxy]-6-methyl-2-oxopyridin-1-yl}-3-(2-hydroxypropan-2-yl)-6′-methyl-[1,3′-bipyridin]-2-one], the results for the IC50 at p38a/MK2 and on p38a/PRAK were greater than 1000 nM and greater than 316000 nM, respectively.

`Cc1cnc(-n2cccc(C(C)C)c2=O)cc1-n1c(C)cc(OCc2ncc(F)cc2F)c(Cl)c1=O` (single isomer, unassigned) [Example 17A, rel-3-chloro-4-[(3,5-difluoropyridin-2-yl)methoxy]-2′-(3-isopropyl-2-oxopyridin-1-yl)-5′,6-dimethyl-[1,4′-bipyridin]-2-one]: the IC50 on p38a/MK2 was 1.58 nM; at p38a/PRAK, 6310 nM.

Regarding `Cc1cnc(-n2cccc(C(C)C)c2=O)cc1-n1c(C)cc(OCc2ncc(F)cc2F)c(Cl)c1=O` (single isomer, unassigned) [Example 17B, rel-3-chloro-4-[(3,5-difluoropyridin-2-yl)methoxy]-2′-(3-isopropyl-2-oxopyridin-1-yl)-5′,6-dimethyl-[1,4′-bipyridin]-2-one], the IC50 on p38a/MK2 is greater than 1000 nM; on p38a/PRAK it was greater than 316000 nM.

As for `[2H]C([2H])(Oc1cc(C)n(-c2cc(-n3cccc(C(C)(C)O)c3=O)ncc2C)c(=O)c1Cl)c1ncc(F)cc1F` (single isomer, unassigned) [Example 18A, rel-3″-chloro-4″-((3,5-difluoropyridin-2-yl)methoxy-d2)-3-(2-hydroxypropan-2-yl)-5′,6″-dimethyl-2H,2″H-[1,2′:4′,1″-terpyridine]-2,2″-dione], the IC50 is 1.58 nM at p38a/MK2 and 3160 nM at p38a/PRAK.
